Results from ChEMBL document CHEMBL1201862, “PubChem BioAssay data set” (2004).
Activity calls are given as the source filed them.

How the values were obtained:
[1] = alpha-synuclein stem-loop luciferase translation blockers – H4 neuroglioma cells, luminescence, confirmation (AID 1988); assay type: functional, cell-based
[2] = Luminescence Cell-Based Dose Response HTS to Identify Inhibitors of 5'UTR Stem-Loop Driven Prion Protein mRNA Translation in H4 Neuroglioblastoma Cells. [Related pubchem assays: 1827 (Project Summary), 1813 (Primary HTS)]; assay type: functional
[3] = luciferase reporter signal suppression in cells – H4 neuroglioma cells, luminescence, dose response (AID 1990); assay type: functional, cell-based
[4] = target: T1, Low molecular weight phosphotyrosine protein phosphatase (Homo sapiens, UniProt P24666); assay type: functional; details: read-out: IC50_Mean;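 further: Dose-response confirmation assay measuring inhibition of LMPTP enzyme activity by fluorescence intensity read-out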
T1 sequence (P24666 whole entry): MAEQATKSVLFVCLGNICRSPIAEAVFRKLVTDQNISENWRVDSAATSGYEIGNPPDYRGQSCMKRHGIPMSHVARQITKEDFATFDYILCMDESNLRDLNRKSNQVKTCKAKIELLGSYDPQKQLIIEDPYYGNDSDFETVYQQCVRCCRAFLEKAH

Escherichia coli = assay: microbe, parasite or virus in culture
[5] = HEK-293T cell viability reduction – luminescence, B-cell screen hits, cytotoxicity control for BCR NF-kB inhibitor project, dose response (AID 489021); assay type: functional, cell-based;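 further: HEK-293T cells carrying an NF-kB luciferase reporter; cells exposed to compound for about 14 hours before viability readout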
H9c2 = assay: cells; assay type: functional, cell-based; details: Rattus norvegicus, H9c2, Myocardium
HEK293 = assay: EBV LMP1 TES2 canonical NF-kB signalling blockers – cell-based, HEK293, luciferase, cherry-pick, dose response (AID 588343); assay type: functional; details: Homo sapiens
[6] = off-target signal loss in HeLa-CEM21 co-culture – HeLa F-luc CTL cells, cherry-picked, counter-screen for HIV-1 Env fusion inhibitor project, dose response (AID 652040); assay type: functional, cell-based;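 further: potency for signal decrease marking cytotoxic or nonspecific inhibition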
[7] = blockers of HIV-1 ZM109 envelope-driven cell-cell fusion – HeLa effector, CEM target cells, luciferase, cherry-pick, dose response (AID 652058); assay type: functional, cell-based;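 further: luciferase signal from HIV-1 Env mediated cell-cell fusion of effector and target cells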
[8] = viability loss in CEM21 cells – cell-based, CellTiter-Glo luminescence, cherry-picked, cytotoxicity control for viral fusion inhibitor project, dose response (AID 652042); assay type: functional;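 further: potency for signal decrease meaning cytotoxicity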
[9] = HIV-1 AD8 envelope cell-cell fusion blockers – cherry-pick, dose response (AID 652062); assay type: functional, cell-based;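 further: luciferase signal from cell-cell fusion driven by HIV-1 clade B AD8 Env; potency is for inhibitors of fusion seen as a drop in luminescence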
[10] = blockers of HIV-1 envelope-mediated cell-cell fusion – cherry-pick, dose response (AID 652057); assay type: functional, cell-based
HeLa = assay: ATP-based viability loss in HeLa cells – cell-based, CellTiter-Glo luminescence, cherry-pick samples, cytotoxicity control for MITF activator project, dose response (AID 540259); assay type: functional; details: Homo sapiens
Protein Wnt-3a = Protein Wnt-3a (Mus musculus, UniProt P27467); assay: antagonism of Wnt3a pathway luciferase reporter – Wnt-LIGHT cells, luminescence, selectivity assay for Gli-SUFU antagonist project, dose response (AID 651570); assay type: functional; details: read-out: IC50_Mean;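 further: Wnt-LIGHT reporter cells stimulated with conditioned medium from Wnt3a-producing cells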
Chain of Protein Wnt-3a (P27467 whole entry): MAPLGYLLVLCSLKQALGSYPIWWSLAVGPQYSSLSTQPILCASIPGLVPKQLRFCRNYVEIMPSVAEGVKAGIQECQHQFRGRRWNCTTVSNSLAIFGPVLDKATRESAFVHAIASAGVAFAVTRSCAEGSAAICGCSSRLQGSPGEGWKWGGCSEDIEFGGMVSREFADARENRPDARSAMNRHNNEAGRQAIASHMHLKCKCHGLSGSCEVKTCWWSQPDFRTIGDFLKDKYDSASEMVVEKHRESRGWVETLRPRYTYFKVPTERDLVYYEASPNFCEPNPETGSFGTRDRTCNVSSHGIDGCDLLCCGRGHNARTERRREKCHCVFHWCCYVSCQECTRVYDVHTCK

[11] = target: T2, Mitochondrial peptide methionine sulfoxide reductase (Bos taurus, UniProt P54149); assay: Absorbance-based biochemical high throughput dose response assay for activators of Methionine sulfoxide reductase A (MsrA).; assay type: functional
T2 sequence (P54149 whole entry): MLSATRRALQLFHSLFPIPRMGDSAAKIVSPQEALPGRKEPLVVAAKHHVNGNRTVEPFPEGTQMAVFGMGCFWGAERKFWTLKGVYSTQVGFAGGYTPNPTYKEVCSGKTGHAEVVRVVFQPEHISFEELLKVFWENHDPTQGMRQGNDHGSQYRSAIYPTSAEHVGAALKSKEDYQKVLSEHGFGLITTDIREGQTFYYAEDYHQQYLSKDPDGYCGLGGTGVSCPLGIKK

## COc1ccc(-n2nc3c(N4CCC(C(=O)NCc5ccco5)CC4)nnc(C)c3c2C)cc1
[1]
  EC50: > 120 µM (not active)
[2]
  EC50: 20.3 µM (active)
[3]
  EC50: > 120 µM (not active)
[4]
  IC50: 61.1 µM (inactive)

## COc1ccc(/N=C2\SC(C(=O)O)CC(=O)N2Cc2ccc(OC)c(OC)c2)cc1 (stereo not given)
Escherichia coli
  AC50: 86.2 µM (active)

## COc1cc(NC(=O)c2cc3c(C)nc4ccccc4c3o2)cc(OC)c1OC
[5]
  IC50: 62.8 µM (inactive)
H9c2
  IC50: > 79 µM (inactive)

## O=C(c1ccccc1)N1CCN(c2nc3ccc([N+](=O)[O-])cc3s2)CC1
Escherichia coli
  AC50: 28.7 µM (active)

## CC12C=CC(=O)CC1CCC1C2CCC2(C)C(O)C(O)CC12 (stereo not given)
H9c2
  IC50: > 79 µM (inactive)

## COc1cccc(-c2nnc3sc(C4CCCCC4)nn23)c1
HEK293
  AC50: 17 µM (active)
[6]
  AC50: 3.63 µM (active)
[7]
  AC50: 5.07 µM (active)
[8]
  AC50: 30 µM (active)
[9]
  AC50: 3.09 µM (active)
[10]
  AC50: 4.26 µM (active)

## COc1ccc(C(=O)Nc2ccc3c4c(cccc24)CC3)cc1
HeLa
  AC50: 73.4 µM (active)

## COc1nnc(-c2ccc(N3CCCCC3)c(N)c2)c2ccccc12
Protein Wnt-3a
  IC50: 25.8 µM (inactive)

## Cc1ccc2c(c1)nc1c3ccccc3nc(-c3ccccc3N)n21
H9c2
  IC50: > 79 µM (inactive)

## N#Cc1ccccc1NC(=O)CN1C(=O)NC(Cc2c[nH]c3ccccc23)C1=O (stereo not given)
[11]
  EC50: > 104 µM (inactive)

## CNC(=O)CNC(=O)Nc1ccc(C)cc1
Escherichia coli
  AC50: 29.8 µM (active)
